Measured values reported in patent US9371265B2, “Compositions and methods related to inhibitors of JAK kinase” (EP PHARMA, INC., priority 2012, dated 2016).

Tests used:
p70 S6 kinase = test: Phospho-p70 S6 kinase in SU-DHL-1 cells (Luminex multiplex); type: cell-based, human; conditions: 24 hours
Procedure: FIGS. 8A-8F. Effect of EP009 on ALCL cells is mediated through selective activation of ERK1/2 and JNK1/2 stress signaling pathways, and inhibition of p70 S6 kinase growth signaling pathways. SU-DHL-1 cells were treated with vehicle (PBS) or increasing amounts of EP009 (0-50 μM) for 24 hours. Cells were then lysed, clarified, and subjected to Luminex multiplex analysis to detect phosphorylated (A) ERK1/2, (B) JNK1/2, (C) p70 S6 kinase, (D) IκBα, (E) CREB, and (F) p38. Values represent mean fluorescence intensity (MFI) normalized to corresponding GAPDH MFI, while error bars represent the standard deviation (n=2). Representative data from two independent experiments are shown. Statistical significance was determined using Student's t-test. (*, p<0.05).
The MILLIPLEX MAP 8-plex Multi-Pathway Signaling Phosphoprotein kit (Millipore) was used to detect phosphorylated ERK1/2 (Thr185/Tyr187), STAT3 (Ser727), JNK1/2 (Thr183/Tyr185), p70 S6 kinase (Thr412), IκBα (Ser32), STAT5A/B (Tyr694/699), CREB (Ser133), and p38 (Thr180/Tyr182). The MILLIPLEX MAP 5-plex STAT Phosphoprotein kit (Millipore) was used to detect phosphorylated STAT1 (Tyr701), STAT2 (Tyr690), STAT3 (Tyr705), STAT5A/B (Tyr694/699), and STAT6 (Tyr641). The MILLIPLEX MAP Human Apoptosis 3-plex kit (Millipore) was used to detect cleaved PARP, cleaved Caspase 3, and total GAPDH for protein normalization.

ADCK3 = ADCK3 (Homo sapiens, UniProt Q8NI60); test: Kinase panel: ADCK3; type: biochemical; conditions: 10 μM EP009
ADCK3, sequence (Q8NI60 163-647): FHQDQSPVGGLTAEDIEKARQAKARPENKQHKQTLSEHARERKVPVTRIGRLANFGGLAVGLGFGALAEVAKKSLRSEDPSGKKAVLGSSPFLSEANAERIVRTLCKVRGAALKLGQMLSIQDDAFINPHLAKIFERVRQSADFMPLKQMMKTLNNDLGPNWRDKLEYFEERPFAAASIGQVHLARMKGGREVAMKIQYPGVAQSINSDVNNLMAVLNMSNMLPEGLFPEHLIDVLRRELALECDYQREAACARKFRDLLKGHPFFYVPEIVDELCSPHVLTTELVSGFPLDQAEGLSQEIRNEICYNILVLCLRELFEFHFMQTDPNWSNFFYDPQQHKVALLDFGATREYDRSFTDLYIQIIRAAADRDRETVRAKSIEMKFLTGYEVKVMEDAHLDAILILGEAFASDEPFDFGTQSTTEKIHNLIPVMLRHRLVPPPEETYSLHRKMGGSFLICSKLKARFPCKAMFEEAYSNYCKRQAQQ
Procedure: (§1) Achieving JAK3 selectivity remains a significant challenge in the development of new small molecules for the treatment of cancer and immune-derived diseases. As such, the inventors employed cell-based screening assays of small-molecule libraries based upon the chemical scaffold of the established JAK3 inhibitor NC1153 (Stepkowski et al., J Immunol. (2005), 175(7):4236-4246) EP009 (FIG. 2A) was selected as a lead compound due to improved intrinsic stability (>95% purity in various solvents at 37° C. for 24 hours; FIG. 3) and high-degree of JAK3 selectivity. To test JAK3 versus JAK2 specificity of EP009, the IL-2/JAK3-dependent Kit225, and IL-3/JAK2-dependent BaF/3 cell lines were used. Kit225 and BaF/3 cells growing in the presence of IL-2 or IL-3, respectively, were treated with ascending concentrations of EP009 for 12 hours and cellular JAK3 and JAK2 tyrosine phosphorylation levels detected by Western blot analysis (FIGS. 2B and 2C). Following densitometric analysis, EP009 was determined to dose-dependently reduce IL-2-mediated JAK3 tyrosine phosphorylation with a cellular 50% inhibitory concentration (IC50) between 10 and 20 μM (FIG. 2B). […] To globally evaluate specificity, the inhibitory activity of EP009 was measured against a panel of protein kinases distributed throughout the kinome using the scanEDGE profiling service (KINOMEscan). […]

CSF1R = CSF1R (Homo sapiens, UniProt P07333); test: Kinase panel: CSF1R; type: biochemical; conditions: 10 μM EP009
CSF1R, sequence (P07333 20-972): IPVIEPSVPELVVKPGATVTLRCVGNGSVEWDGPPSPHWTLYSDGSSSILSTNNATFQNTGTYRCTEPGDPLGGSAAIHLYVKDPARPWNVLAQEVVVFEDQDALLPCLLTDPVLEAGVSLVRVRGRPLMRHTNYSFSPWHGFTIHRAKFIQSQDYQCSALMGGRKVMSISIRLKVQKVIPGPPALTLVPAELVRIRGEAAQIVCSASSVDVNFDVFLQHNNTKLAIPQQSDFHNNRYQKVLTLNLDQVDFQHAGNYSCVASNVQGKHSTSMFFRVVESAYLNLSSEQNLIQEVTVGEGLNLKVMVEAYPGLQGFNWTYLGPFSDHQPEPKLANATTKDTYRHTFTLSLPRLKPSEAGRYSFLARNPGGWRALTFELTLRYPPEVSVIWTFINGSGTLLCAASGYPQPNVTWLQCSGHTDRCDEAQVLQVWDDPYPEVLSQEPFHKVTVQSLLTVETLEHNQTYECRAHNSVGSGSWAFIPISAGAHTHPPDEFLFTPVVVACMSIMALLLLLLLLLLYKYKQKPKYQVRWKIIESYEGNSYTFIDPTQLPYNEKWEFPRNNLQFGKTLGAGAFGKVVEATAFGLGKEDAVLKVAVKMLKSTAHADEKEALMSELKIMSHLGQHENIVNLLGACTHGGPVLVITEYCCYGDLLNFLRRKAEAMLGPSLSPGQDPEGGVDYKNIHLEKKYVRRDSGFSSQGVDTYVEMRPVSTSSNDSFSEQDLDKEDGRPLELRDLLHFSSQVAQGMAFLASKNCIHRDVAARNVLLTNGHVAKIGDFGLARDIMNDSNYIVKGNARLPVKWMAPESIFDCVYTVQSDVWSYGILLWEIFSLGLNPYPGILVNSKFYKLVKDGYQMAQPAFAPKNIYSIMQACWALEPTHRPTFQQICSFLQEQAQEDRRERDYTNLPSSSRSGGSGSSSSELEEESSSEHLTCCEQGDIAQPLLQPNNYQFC
Procedure: as §1

GSK3B = GSK3B (Homo sapiens, UniProt P49841); test: Kinase panel: GSK3B; type: biochemical; conditions: 10 μM EP009
GSK3B, sequence (P49841 whole entry): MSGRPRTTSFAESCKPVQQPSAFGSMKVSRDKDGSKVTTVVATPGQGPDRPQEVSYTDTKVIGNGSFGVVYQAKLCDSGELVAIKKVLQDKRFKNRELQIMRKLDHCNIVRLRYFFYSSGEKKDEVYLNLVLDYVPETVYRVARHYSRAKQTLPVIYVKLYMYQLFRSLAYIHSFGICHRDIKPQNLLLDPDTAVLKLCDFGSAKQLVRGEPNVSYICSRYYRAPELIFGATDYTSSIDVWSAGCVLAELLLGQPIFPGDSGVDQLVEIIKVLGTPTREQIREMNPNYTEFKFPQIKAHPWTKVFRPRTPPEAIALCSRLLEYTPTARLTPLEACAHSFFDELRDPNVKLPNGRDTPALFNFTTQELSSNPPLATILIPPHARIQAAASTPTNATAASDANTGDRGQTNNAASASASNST
Procedure: as §1

IGF1R = IGF1R (Homo sapiens, UniProt P08069); test: Kinase panel: IGF1R; type: biochemical; conditions: 10 μM EP009
IGF1R, sequence (P08069 31-1367): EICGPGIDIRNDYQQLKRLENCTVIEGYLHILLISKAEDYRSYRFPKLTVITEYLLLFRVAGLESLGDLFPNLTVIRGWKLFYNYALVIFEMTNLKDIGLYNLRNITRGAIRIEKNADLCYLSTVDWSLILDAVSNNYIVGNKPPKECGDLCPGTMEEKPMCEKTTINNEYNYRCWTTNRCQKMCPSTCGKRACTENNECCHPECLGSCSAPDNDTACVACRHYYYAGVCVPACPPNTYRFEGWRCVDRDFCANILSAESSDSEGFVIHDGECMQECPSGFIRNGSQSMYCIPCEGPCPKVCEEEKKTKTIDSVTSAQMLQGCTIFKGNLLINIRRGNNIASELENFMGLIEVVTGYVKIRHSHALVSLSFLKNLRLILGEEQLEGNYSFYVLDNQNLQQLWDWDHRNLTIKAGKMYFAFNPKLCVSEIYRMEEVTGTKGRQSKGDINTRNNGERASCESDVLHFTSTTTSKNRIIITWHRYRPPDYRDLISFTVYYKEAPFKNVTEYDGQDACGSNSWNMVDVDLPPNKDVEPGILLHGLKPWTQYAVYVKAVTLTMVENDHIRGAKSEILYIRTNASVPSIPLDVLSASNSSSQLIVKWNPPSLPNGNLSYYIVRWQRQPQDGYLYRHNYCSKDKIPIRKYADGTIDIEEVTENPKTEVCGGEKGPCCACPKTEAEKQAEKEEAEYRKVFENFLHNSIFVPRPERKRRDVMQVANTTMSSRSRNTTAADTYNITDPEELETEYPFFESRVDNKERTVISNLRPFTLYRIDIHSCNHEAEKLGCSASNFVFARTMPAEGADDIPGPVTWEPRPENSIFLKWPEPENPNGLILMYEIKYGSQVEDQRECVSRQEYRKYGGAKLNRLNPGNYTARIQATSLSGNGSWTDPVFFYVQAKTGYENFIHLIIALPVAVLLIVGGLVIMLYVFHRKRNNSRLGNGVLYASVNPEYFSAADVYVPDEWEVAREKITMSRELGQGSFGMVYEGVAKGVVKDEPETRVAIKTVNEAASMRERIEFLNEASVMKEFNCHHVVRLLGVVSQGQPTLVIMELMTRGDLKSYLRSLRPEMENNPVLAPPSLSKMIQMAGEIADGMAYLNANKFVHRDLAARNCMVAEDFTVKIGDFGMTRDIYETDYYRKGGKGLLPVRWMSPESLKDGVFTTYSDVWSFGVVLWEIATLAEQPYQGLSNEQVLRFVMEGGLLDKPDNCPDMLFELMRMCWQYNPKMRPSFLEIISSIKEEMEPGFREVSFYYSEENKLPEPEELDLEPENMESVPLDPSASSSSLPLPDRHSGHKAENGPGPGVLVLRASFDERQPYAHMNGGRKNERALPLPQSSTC
Procedure: as §1

MARK3 = MARK3 (Homo sapiens, UniProt P27448); test: Kinase panel: MARK3; type: biochemical; conditions: 10 μM EP009
Procedure: as §1

p38-beta = p38-beta (Homo sapiens, UniProt Q15759); test: Kinase panel: p38-beta; type: biochemical; conditions: 10 μM EP009
Procedure: as §1

PIK3CA = PIK3CA (Homo sapiens, UniProt P42336); test: Kinase panel: PIK3CA; type: biochemical; conditions: 10 μM EP009
Procedure: as §1

PIK3CG = PIK3CG (Homo sapiens, UniProt P48736); test: Kinase panel: PIK3CG; type: biochemical; conditions: 10 μM EP009
PIK3CG, sequence (P48736 whole entry): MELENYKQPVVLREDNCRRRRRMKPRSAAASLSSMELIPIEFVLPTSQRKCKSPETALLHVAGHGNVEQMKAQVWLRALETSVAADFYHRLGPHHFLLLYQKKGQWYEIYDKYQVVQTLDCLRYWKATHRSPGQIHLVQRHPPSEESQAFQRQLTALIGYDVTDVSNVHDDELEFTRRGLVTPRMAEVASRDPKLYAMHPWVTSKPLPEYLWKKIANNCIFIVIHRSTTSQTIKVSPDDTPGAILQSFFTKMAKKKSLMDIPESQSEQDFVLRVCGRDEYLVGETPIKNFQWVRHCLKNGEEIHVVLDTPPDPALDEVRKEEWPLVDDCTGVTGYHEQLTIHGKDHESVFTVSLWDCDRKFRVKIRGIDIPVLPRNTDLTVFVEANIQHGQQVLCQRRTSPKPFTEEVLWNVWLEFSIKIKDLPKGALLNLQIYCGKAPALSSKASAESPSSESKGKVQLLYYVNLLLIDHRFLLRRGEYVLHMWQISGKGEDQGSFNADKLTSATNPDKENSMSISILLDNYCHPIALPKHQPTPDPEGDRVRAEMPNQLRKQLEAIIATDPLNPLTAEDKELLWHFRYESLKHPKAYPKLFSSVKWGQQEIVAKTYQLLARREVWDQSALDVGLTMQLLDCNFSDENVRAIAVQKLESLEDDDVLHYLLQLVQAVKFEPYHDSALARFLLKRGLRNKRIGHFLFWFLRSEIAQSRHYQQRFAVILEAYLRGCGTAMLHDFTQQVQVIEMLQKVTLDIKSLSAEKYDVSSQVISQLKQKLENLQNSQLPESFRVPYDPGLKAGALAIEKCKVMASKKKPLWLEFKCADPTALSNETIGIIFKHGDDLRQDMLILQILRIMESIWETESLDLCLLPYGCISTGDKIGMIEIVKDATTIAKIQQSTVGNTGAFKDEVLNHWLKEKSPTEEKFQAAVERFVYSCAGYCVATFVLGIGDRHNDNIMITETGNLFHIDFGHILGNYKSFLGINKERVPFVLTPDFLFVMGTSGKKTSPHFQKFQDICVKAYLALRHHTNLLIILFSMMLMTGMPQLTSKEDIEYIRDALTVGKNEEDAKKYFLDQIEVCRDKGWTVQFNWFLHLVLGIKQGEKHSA
Procedure: as §1

PLK1 = PLK1 (Homo sapiens, UniProt P53350); test: Kinase panel: PLK1; type: biochemical; conditions: 10 μM EP009
Procedure: as §1

PRKCE = PRKCE (Homo sapiens, UniProt Q02156); test: Kinase panel: PRKCE; type: biochemical; conditions: 10 μM EP009
PRKCE, sequence (Q02156 whole entry): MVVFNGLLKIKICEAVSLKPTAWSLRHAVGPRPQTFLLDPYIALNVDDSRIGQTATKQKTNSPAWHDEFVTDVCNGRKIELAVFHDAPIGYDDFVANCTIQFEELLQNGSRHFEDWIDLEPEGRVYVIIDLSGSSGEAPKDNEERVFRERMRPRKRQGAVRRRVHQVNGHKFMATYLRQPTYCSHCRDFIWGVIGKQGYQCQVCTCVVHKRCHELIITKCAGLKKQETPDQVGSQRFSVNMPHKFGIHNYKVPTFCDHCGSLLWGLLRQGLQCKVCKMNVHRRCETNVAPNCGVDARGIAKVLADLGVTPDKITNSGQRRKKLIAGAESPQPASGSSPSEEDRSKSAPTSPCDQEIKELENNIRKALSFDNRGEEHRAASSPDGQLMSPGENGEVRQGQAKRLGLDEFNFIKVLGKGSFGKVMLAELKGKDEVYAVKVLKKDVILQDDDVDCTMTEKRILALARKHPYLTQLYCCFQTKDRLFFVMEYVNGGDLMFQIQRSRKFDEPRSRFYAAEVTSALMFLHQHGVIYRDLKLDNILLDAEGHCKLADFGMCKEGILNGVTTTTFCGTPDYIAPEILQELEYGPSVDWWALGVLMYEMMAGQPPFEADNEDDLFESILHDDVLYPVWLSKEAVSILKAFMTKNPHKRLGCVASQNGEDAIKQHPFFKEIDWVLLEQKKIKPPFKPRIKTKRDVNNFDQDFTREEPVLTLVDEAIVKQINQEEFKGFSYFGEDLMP
Procedure: as §1

ULK2 = ULK2 (Homo sapiens, UniProt Q8IYT8); test: Kinase panel: ULK2; type: biochemical; conditions: 10 μM EP009
Procedure: as §1

YANK3 = YANK3 (Homo sapiens, UniProt Q86UX6); test: Kinase panel: YANK3; type: biochemical; conditions: 10 μM EP009
Procedure: as §1

ZAP70 = ZAP70 (Homo sapiens, UniProt P43403); test: Kinase panel: ZAP70; type: biochemical; conditions: 10 μM EP009
Procedure: as §1

What does the source list for `C=C1CCCCCCCCCC(CO)C1=O` (centres unmarked) [EP009, 2-(Hydroxymethyl)-12-methylenecyclododecanone]?
constitutive phosphorylation of p70 S6 kinase (p70 S6 kinase): decreased in a dose-dependent manner; Kinase Activity (% of Control) (ADCK3): 98 % of Control; Kinase Activity (% of Control) (CSF1R): 94 % of Control; Kinase Activity (% of Control) (GSK3B): 100 % of Control; Kinase Activity (% of Control) (IGF1R): 100 % of Control; Kinase Activity (% of Control) (MARK3): 100 % of Control; Kinase Activity (% of Control) (p38-beta): 96 % of Control; Kinase Activity (% of Control) (PIK3CA): 76 % of Control; Kinase Activity (% of Control) (PIK3CG): 75 % of Control; Kinase Activity (% of Control) (PLK1): 100 % of Control; Kinase Activity (% of Control) (PRKCE): 100 % of Control; Kinase Activity (% of Control) (ULK2): 58 % of Control; Kinase Activity (% of Control) (YANK3): 98 % of Control; Kinase Activity (% of Control) (ZAP70): 99 % of Control
